From paper PMC5761851, “Application of a phenotypic drug discovery strategy to identify biological and chemical starting points for inhibition of TSLP production in lung epithelial cells” (PLoS ONE, 2018)
“And” between values parts separate entries of the source, which are not always exact repeats. Identical values can stand only once.

Experiments:
Assay in all cases: kinase selectivity panel
Type in all cases: biochemical
PAK2 = target: T1, PAK2 (Homo sapiens, UniProt Q13177); conditions: read-out: percentage of control activity (POC), PAK2
T1 construct: purchased Eurofins Pharma Discovery Services (KinaseProfiler; Cerep BioPrint panel)
T1 sequence (Q13177 whole entry): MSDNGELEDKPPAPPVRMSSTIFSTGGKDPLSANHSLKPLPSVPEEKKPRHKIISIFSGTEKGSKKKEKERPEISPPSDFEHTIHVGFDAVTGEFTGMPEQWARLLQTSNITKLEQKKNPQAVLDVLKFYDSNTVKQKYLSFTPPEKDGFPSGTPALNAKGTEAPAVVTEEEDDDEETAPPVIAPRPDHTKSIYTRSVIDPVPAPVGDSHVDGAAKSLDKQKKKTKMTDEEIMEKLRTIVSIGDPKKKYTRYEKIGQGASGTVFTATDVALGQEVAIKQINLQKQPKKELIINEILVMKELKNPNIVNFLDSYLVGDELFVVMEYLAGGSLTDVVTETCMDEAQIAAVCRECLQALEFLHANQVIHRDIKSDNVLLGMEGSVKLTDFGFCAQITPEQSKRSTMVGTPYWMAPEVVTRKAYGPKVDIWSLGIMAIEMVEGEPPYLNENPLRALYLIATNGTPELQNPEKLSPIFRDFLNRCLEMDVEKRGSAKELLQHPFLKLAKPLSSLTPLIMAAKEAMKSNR
Outline: (§1)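 IC50 values derive from 9 duplicate concentrations, run only for activities picked after an initial 10 μM duplicate screen across 125 representative kinases.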

IKKε = target: T2, IKKε (Homo sapiens, UniProt Q14164); conditions: read-out: percentage of control activity (POC), IKKε
T2 construct: purchased Eurofins Pharma Discovery Services (KinaseProfiler; Cerep BioPrint panel)
T2 sequence (Q14164 1-716): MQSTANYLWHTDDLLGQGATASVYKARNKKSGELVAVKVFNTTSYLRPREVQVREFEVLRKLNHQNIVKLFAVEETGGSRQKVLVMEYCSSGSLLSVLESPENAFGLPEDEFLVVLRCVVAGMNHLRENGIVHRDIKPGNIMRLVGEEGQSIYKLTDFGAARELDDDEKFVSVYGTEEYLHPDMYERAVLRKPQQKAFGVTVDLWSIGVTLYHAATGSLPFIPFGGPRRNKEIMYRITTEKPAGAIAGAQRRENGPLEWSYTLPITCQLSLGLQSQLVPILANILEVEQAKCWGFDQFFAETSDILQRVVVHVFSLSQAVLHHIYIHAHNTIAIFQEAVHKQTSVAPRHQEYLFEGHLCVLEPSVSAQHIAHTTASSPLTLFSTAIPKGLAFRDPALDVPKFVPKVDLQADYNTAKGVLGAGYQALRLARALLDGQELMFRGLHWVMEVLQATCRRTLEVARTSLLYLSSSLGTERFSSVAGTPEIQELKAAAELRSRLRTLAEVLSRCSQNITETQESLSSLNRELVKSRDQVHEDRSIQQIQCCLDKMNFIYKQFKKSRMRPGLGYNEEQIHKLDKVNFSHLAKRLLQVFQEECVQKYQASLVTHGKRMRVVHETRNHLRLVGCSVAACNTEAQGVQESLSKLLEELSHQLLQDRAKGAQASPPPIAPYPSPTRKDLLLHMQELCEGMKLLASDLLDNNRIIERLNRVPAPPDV
Outline: as §1

RIPK2 = target: T3, RIPK2 (Homo sapiens, UniProt O43353); conditions: read-out: percentage of control activity (POC), RIPK2
T3 construct: purchased Eurofins Pharma Discovery Services (KinaseProfiler; Cerep BioPrint panel)
T3 sequence (O43353 whole entry): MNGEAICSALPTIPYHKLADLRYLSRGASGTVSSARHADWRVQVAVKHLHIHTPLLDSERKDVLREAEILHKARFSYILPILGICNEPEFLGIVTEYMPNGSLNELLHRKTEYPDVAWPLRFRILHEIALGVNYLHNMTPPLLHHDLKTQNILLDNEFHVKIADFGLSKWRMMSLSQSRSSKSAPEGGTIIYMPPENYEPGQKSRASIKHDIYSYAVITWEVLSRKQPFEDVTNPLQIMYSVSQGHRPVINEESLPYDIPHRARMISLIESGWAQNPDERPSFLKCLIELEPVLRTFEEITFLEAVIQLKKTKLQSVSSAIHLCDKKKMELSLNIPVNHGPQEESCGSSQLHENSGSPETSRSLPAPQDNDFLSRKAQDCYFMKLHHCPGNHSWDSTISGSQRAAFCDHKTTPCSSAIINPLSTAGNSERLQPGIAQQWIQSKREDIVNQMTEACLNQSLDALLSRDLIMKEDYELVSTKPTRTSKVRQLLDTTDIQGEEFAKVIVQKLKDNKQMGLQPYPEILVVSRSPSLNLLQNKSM
Outline: as §1

mTOR = target: T4, mTOR (Homo sapiens, UniProt P42345); conditions: for remaining activity at 10 µM: read-out: percentage of control activity (POC), mTOR
T4 construct: Eurofins Pharma Discovery Services (contract assay service)
Outline: as §1

GSK3α = target: T5, GSK3α (Homo sapiens, UniProt P49840); conditions: read-out: percentage of control activity (POC), GSK3α
T5 construct: purchased Eurofins Pharma Discovery Services (KinaseProfiler; Cerep BioPrint panel)
T5 sequence (P49840 whole entry): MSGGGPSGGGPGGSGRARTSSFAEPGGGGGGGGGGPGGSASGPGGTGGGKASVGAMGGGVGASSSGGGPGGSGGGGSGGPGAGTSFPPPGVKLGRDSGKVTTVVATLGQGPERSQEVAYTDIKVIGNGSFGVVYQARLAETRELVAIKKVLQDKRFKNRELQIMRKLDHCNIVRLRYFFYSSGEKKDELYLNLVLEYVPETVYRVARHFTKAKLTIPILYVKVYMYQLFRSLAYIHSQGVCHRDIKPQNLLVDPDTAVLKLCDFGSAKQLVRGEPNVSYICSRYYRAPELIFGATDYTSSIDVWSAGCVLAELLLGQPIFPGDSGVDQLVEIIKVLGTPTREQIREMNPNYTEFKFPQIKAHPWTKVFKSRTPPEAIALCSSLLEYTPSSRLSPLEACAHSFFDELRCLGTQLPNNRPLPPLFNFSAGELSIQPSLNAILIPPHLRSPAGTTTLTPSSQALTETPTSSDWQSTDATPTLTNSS
Outline: as §1

IRAK1 = target: T6, IRAK1 (Homo sapiens, UniProt P51617); conditions: read-out: percentage of control activity (POC), IRAK1
T6 construct: purchased Eurofins Pharma Discovery Services (KinaseProfiler; Cerep BioPrint panel)
T6 sequence (P51617 whole entry): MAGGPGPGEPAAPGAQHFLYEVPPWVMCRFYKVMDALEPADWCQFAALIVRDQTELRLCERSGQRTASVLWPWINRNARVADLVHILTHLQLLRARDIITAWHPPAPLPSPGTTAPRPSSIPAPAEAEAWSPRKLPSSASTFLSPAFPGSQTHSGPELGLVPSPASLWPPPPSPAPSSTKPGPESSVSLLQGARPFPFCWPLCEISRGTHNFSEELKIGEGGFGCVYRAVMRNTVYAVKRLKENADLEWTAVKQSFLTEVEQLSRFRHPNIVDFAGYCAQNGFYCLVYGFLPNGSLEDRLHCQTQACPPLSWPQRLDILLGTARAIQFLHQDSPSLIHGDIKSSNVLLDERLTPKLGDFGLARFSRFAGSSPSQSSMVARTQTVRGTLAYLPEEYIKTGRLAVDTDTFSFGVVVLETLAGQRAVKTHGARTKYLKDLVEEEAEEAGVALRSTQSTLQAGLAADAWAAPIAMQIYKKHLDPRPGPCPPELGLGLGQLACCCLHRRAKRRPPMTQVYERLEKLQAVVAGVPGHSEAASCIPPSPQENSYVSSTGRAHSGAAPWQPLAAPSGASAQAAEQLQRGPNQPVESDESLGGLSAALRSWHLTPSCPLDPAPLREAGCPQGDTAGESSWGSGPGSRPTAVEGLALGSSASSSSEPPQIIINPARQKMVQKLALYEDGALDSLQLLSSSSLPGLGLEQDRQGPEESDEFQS
Outline: as §1

EGFR = target: T7, EGFR (Homo sapiens, UniProt P00533); conditions: read-out: percentage of control activity (POC), EGFR
T7 construct: purchased Eurofins Pharma Discovery Services (KinaseProfiler; Cerep BioPrint panel)
Outline: as §1

MLK1 = target: T8, MLK1 (Homo sapiens, UniProt P80192); conditions: read-out: percentage of control activity (POC), MLK1
T8 construct: purchased Eurofins Pharma Discovery Services (KinaseProfiler; Cerep BioPrint panel)
Outline: as §1

PKA = target: T9, PKA (Homo sapiens, UniProt P17612); conditions: read-out: percentage of control activity (POC), PKA
T9 construct: purchased Eurofins Pharma Discovery Services (KinaseProfiler; Cerep BioPrint panel)
Outline: as §1

MKK6 = target: T10, MKK6 (Homo sapiens, UniProt P52564); conditions: for remaining activity at 10 µM: read-out: percentage of control activity (POC), MKK6
T10 construct: purchased Eurofins Pharma Discovery Services (KinaseProfiler; Cerep BioPrint panel)
T10 sequence (P52564 1-334): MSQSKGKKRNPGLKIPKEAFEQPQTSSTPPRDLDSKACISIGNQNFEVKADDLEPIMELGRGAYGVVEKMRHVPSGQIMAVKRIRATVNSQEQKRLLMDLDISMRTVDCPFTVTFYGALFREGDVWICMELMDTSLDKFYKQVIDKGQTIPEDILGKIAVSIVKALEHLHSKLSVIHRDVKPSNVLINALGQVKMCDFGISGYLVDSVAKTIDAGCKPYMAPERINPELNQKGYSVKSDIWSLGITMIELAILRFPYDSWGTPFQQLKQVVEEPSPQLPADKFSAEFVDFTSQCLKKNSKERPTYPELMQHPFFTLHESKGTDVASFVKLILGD
Outline: as §1

TAK1 = target: T11, TAK1 (Homo sapiens, UniProt O43318); conditions: read-out: percentage of control activity (POC), TAK1
T11 construct: purchased Eurofins Pharma Discovery Services (KinaseProfiler; Cerep BioPrint panel)
T11 sequence (O43318 1-303 limits assumed): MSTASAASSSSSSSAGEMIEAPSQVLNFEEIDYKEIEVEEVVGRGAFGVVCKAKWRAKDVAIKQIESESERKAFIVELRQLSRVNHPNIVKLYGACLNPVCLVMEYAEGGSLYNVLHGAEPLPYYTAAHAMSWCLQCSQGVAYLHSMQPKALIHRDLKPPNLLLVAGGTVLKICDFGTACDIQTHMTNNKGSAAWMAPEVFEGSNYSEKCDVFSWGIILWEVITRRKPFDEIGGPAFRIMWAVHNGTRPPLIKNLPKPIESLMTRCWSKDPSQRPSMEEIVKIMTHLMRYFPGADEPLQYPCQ
Outline: as §1

FGFR4 = target: T12, FGFR4 (Homo sapiens, UniProt P22455); conditions: read-out: percentage of control activity (POC), FGFR4
T12 construct: purchased Eurofins Pharma Discovery Services (KinaseProfiler; Cerep BioPrint panel)
T12 sequence (P22455 22-802): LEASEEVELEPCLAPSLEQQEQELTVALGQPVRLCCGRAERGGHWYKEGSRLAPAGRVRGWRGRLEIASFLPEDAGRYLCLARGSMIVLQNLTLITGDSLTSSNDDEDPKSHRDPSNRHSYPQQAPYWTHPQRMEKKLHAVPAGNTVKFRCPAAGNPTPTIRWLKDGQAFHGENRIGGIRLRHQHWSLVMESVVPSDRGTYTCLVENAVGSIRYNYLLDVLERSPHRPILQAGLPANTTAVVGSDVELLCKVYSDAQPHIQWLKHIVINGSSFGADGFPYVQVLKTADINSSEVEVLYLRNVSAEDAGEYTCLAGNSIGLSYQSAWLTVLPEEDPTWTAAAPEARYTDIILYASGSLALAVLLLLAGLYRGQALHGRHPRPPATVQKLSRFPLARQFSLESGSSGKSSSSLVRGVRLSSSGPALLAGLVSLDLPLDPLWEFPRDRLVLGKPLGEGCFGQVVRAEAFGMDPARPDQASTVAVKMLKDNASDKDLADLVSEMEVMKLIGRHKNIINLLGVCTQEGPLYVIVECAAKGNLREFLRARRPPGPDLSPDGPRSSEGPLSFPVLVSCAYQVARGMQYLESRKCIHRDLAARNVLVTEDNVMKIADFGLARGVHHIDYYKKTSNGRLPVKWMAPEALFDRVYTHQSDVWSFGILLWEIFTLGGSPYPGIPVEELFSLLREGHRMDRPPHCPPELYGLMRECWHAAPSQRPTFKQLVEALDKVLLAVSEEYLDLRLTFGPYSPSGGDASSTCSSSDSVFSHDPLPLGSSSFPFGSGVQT
Outline: as §1

PI3K (p110b/p85a) = target: T13, PI3K (p110b/p85a) (Homo sapiens, UniProt P42338); conditions: read-out: percentage of control activity (POC), PI3K (p110b/p85a)
T13 construct: purchased Eurofins Pharma Discovery Services (KinaseProfiler; Cerep BioPrint panel)
T13 sequence (P42338 whole entry): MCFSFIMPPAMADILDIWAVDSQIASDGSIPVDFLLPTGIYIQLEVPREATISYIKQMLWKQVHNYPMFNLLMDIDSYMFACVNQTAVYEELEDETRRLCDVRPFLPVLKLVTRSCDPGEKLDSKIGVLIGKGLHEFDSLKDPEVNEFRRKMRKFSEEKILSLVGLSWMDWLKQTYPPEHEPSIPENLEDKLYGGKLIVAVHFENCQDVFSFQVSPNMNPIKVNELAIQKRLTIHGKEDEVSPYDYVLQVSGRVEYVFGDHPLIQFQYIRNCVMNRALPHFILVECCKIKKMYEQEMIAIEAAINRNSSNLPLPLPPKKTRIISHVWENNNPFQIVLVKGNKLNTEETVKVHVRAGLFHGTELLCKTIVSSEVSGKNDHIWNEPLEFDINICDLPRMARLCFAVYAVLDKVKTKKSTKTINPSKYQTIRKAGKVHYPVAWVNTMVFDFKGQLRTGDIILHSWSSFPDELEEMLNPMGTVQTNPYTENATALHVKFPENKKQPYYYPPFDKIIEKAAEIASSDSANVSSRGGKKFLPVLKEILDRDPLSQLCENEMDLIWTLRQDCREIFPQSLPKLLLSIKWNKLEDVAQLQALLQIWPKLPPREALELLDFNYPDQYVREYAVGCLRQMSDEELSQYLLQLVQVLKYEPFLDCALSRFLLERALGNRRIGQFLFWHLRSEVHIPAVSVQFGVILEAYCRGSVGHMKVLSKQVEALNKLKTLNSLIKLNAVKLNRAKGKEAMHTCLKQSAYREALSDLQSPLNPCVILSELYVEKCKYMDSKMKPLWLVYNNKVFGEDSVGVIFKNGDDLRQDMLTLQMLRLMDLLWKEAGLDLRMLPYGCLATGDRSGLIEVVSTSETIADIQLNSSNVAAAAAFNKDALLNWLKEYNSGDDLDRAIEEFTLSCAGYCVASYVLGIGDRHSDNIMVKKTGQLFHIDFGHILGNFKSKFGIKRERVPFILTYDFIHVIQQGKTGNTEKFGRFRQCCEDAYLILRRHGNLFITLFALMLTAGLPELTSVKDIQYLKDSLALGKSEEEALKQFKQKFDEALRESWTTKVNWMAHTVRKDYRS
T13 sequence (P27986 whole entry partner): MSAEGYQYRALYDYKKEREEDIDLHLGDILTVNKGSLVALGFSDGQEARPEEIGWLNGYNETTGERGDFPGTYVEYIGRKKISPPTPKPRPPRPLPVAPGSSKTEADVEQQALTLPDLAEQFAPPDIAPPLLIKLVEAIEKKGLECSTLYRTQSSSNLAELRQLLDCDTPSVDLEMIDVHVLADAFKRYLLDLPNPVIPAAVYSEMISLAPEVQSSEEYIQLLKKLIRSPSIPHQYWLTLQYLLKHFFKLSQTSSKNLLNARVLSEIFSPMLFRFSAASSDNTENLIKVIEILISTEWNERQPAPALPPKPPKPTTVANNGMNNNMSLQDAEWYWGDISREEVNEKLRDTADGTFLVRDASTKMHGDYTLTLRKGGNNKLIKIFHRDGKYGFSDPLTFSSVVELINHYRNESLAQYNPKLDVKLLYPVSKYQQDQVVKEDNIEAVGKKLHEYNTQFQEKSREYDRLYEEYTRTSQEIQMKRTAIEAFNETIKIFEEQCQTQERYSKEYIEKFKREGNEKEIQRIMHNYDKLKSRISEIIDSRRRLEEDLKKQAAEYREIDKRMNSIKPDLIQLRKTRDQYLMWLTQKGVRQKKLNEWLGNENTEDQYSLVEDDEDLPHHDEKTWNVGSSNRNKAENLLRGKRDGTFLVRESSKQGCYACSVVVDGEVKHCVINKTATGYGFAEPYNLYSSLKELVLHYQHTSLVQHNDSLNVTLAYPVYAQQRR
Outline: as §1

remaining activity at 10 µM (PAK2) [%]	remaining activity at 10 µM (IKKε) [%]	remaining activity at 10 µM (RIPK2) [%]	remaining activity at 10 µM (mTOR; 10 μM) [%]	remaining activity at 10 µM (GSK3α) [%]	remaining activity at 10 µM (IRAK1) [%]	remaining activity at 10 µM (EGFR) [%]	remaining activity at 10 µM (MLK1) [%]	remaining activity at 10 µM (PKA) [%]	inhibition at 10 µM (MKK6) [%]	remaining activity at 10 µM (MKK6) [%]	remaining activity at 10 µM (TAK1) [%]	remaining activity at 10 µM (FGFR4) [%]	remaining activity at 10 µM (PI3K (p110b/p85a)) [%]	Compound	inhibition at 10 µM (mTOR; 10 μM) [%]	IC50 (mTOR; biochemical dose response, duplicate, read-out: Inhibition of indicated activity (IC50, μM): mTOR)
89	102	94	99	95	91	91	97	99	~100	-3	97	91	86	Cc1ccc(C(=O)NCC2CC2)cc1-c1ccc2c(c1)NC(=O)C21CCCC1 [compound 3]	–	–
96	100	100	96	103	95	104	104	109	~100	-3	103	89	87	COc1c(NC(=O)c2ccc(C)c(-c3nnc4c(NCC(C)(C)C)nccn34)c2)cc(C(C)(C)C)cc1NS(C)(=O)=O [compound 7, reference compound]	–	–

The next lines start with the compound.

Compound	remaining activity at 10 µM (PAK2) [%]	remaining activity at 10 µM (IKKε) [%]	remaining activity at 10 µM (RIPK2) [%]	remaining activity at 10 µM (mTOR; 10 μM) [%]	remaining activity at 10 µM (GSK3α) [%]	remaining activity at 10 µM (IRAK1) [%]	remaining activity at 10 µM (EGFR) [%]	remaining activity at 10 µM (MLK1) [%]	remaining activity at 10 µM (PKA) [%]	inhibition at 10 µM (MKK6) [%]	remaining activity at 10 µM (MKK6) [%]	remaining activity at 10 µM (TAK1) [%]	remaining activity at 10 µM (FGFR4) [%]	remaining activity at 10 µM (PI3K (p110b/p85a)) [%]	inhibition at 10 µM (mTOR; 10 μM) [%]	IC50 (mTOR; biochemical dose response, duplicate, read-out: Inhibition of indicated activity (IC50, μM): mTOR)
CC(C)(C)N1CCC(c2cc(-c3ccc(F)cc3Cl)c3cc[n+]([O-])c(-c4c(Cl)cccc4Cl)c3n2)CC1 [compound 2]	111	101	61	101	107	102	96	99	109	~100	0	105	88	92	–	–
Cn1cc(-c2cccc(-c3nc(C(=O)NC4C5CC6CC4CC(O)(C6)C5)c(N)nc3N)c2)cn1 (stereo not shown) [compound 4]	87	96	61	13	76	89	95	79	100	–	80	97	86	71	87	~1 µM and 0.964 µM
CS(=O)(=O)N1CCN(c2ccc(Nc3ncc(C(N)=O)c(NC4CC4)n3)cc2)CC1 [compound 5]	24	0	81	96	40	20	87	-1	26	–	32	1	73	93	–	–
